ChEMBL document CHEMBL4229418, “Design, synthesis and pharmacology of aortic-selective acyl-CoA: Cholesterol O-acyltransferase (ACAT/SOAT) inhibitors” (Bioorg Med Chem, 2018)

Legend:
Hamster [1] = experiment: Effect on lipid composition in Bio F1B hamster model of diet-induced atherosclerosis assessed as intestine total cholesterol level at 30 mg/kg/day added to chow pellets (reference value: 4.51 mg/dl); format: functional, Cricetinae
Hamster [2] = experiment: Antiatherosclerotic activity in Bio F1B hamster model of diet-induced atherosclerosis assessed as reduction in lipid accumulation areas in aortic arch at 1 mg/kg/day added to chow pellets by oil red O staining based assay relative to control; format: functional; details: Cricetinae
[3] = AUC (0 to 8 hrs) in fasted Beagle dog at 30 mg/kg, po by LC-MS/MS analysis; format: ADME, organism-based, Canis lupus familiaris; set-up: dose 30 mg/kg, time < 8 hr, route oral; details: in vivo
Hamster [4] = experiment: Antiatherosclerotic activity in Bio F1B hamster model of diet-induced atherosclerosis assessed as adrenal cholesterol ester level at 3 mg/kg/day added to chow pellets (reference value: 5.88 mg/dl); format: functional, Cricetinae
Hamster [5] = experiment: Toxicity in Bio F1B hamster model of diet-induced atherosclerosis assessed as plasma total cholesterol level at 1 mg/kg/day added to chow pellets (reference value: 2160.1 mg/dl); format: organism-based; details: cricetinae, in vivo
Hamster [6] = experiment: Effect on lipid composition in Bio F1B hamster model of diet-induced atherosclerosis assessed as liver total cholesterol level at 10 mg/kg/day added to chow pellets (reference value: 31.99 mg/dl); format: functional, Cricetinae
[7] = Cmax in fasted Beagle dog at 30 mg/kg, po by LC-MS/MS analysis; format: ADME, organism-based, Canis lupus familiaris; set-up: dose 30 mg/kg, route oral; details: in vivo
Hamster [8] = experiment: Antiatherosclerotic activity in Bio F1B hamster model of diet-induced atherosclerosis assessed as plasma cholesterol ester level at 1 mg/kg/day added to chow pellets (reference value: 1379.3 mg/dl); format: functional, Cricetinae
Hamster [9] = experiment: Antiatherosclerotic activity in Bio F1B hamster model of diet-induced atherosclerosis assessed as plasma cholesterol ester level at 10 mg/kg/day added to chow pellets (reference value: 1379.3 mg/dl); format: functional, Cricetinae
Hamster [10] = experiment: Effect on lipid composition in Bio F1B hamster model of diet-induced atherosclerosis assessed as adrenal total cholesterol level at 1 mg/kg/day added to chow pellets (reference value: 10.54 mg/dl); format: functional, Cricetinae
[11] = Tmax in fasted Beagle dog at 30 mg/kg, po by LC-MS/MS analysis; format: ADME, organism-based, Canis lupus familiaris; details: in vivo
Hamster [12] = experiment: Antiatherosclerotic activity in Bio F1B hamster model of diet-induced atherosclerosis assessed as liver free cholesterol level at 10 mg/kg/day added to chow pellets (reference value: 7.94 mg/dl); format: functional, Cricetinae
Hamster [13] = experiment: Antiatherosclerotic activity in Bio F1B hamster model of diet-induced atherosclerosis assessed as plasma free cholesterol level at 10 mg/kg/day added to chow pellets (reference value: 780.8 mg/dl); format: functional, Cricetinae
Hamster [14] = experiment: Toxicity in Bio F1B hamster model of diet-induced atherosclerosis assessed as plasma total cholesterol level at 10 mg/kg/day added to chow pellets (reference value: 2160.1 mg/dl); format: organism-based; details: cricetinae, in vivo
Hamster [15] = experiment: Antiatherosclerotic activity in Bio F1B hamster model of diet-induced atherosclerosis assessed as intestinal cholesterol ester level at 3 mg/kg/day added to chow pellets (reference value: 1.09 mg/dl); format: functional, Cricetinae
Hamster [16] = experiment: Antiatherosclerotic activity in Bio F1B hamster model of diet-induced atherosclerosis assessed as intestinal cholesterol ester level at 1 mg/kg/day added to chow pellets (reference value: 1.09 mg/dl); format: functional, Cricetinae
Hamster [17] = experiment: Antiatherosclerotic activity in Bio F1B hamster model of diet-induced atherosclerosis assessed as liver cholesterol ester level at 3 mg/kg/day added to chow pellets (reference value: 24.04 mg/dl); format: functional, Cricetinae
Hamster [18] = experiment: Antiatherosclerotic activity in Bio F1B hamster model of diet-induced atherosclerosis assessed as plasma free cholesterol level at 3 mg/kg/day added to chow pellets (reference value: 780.8 mg/dl); format: functional, Cricetinae
Hamster [19] = experiment: Effect on lipid composition in Bio F1B hamster model of diet-induced atherosclerosis assessed as adrenal total cholesterol level at 3 mg/kg/day added to chow pellets (reference value: 10.54 mg/dl); format: functional, Cricetinae
[20] = AUC (0 to 8 hrs) in non-fasted Sprague-Dawley rat at 30 mg/kg, po by LC-MS/MS analysis; format: ADME, organism-based; set-up: dose 30 mg/kg, time < 8 hr, route oral; details: in vivo
Hamster [21] = experiment: Toxicity in Bio F1B hamster model of diet-induced atherosclerosis assessed as adrenal free cholesterol level at 30 mg/kg/day added to chow pellets (reference value: 4.65 mg/dl); format: organism-based; details: cricetinae, in vivo
Hamster [22] = experiment: Antiatherosclerotic activity in Bio F1B hamster model of diet-induced atherosclerosis assessed as plasma free cholesterol level at 1 mg/kg/day added to chow pellets (reference value: 780.8 mg/dl); format: functional, Cricetinae
Canis familiaris = experiment: Toxicity in dog assessed as induction of necrosis in adrenal reticular zona cells at 100 mg/kg measured over 2 weeks; format: organism-based, Canis lupus familiaris; details: in vivo, 336 h
Hamster [23] = experiment: Antiatherosclerotic activity in Bio F1B hamster model of diet-induced atherosclerosis assessed as adrenal cholesterol ester level at 10 mg/kg/day added to chow pellets (reference value: 5.88 mg/dl); format: functional, Cricetinae
Hamster [24] = experiment: Antiatherosclerotic activity in Bio F1B hamster model of diet-induced atherosclerosis assessed as intestinal free cholesterol level at 1 mg/kg/day added to chow pellets (reference value: 3.41 mg/dl); format: functional, Cricetinae
Hamster [25] = experiment: Antiatherosclerotic activity in Bio F1B hamster model of diet-induced atherosclerosis assessed as liver cholesterol ester level at 30 mg/kg/day added to chow pellets (reference value: 24.04 mg/dl); format: functional, Cricetinae
[26] = AUC (0 to 8 hrs) in non-fasted Beagle dog at 30 mg/kg, po by LC-MS/MS analysis; format: ADME, organism-based, Canis lupus familiaris; set-up: time < 8 hr, dose 30 mg/kg, route oral; details: in vivo
Hamster [27] = experiment: Antiatherosclerotic activity in Bio F1B hamster model of diet-induced atherosclerosis assessed as liver free cholesterol level at 3 mg/kg/day added to chow pellets (reference value: 7.94 mg/dl); format: functional, Cricetinae
Hamster [28] = experiment: Antiatherosclerotic activity in Bio F1B hamster model of diet-induced atherosclerosis assessed as liver cholesterol ester level at 10 mg/kg/day added to chow pellets (reference value: 24.04 mg/dl); format: functional, Cricetinae

Work on `CC(C)c1cccc(C(C)C)c1NC(=O)CCCCCCCCSc1nc2ccccc2o1` yielded an Activity (Hamster [1]) of 4.81 mg/dL, an inhibition in vivo at 1 mg/kg/day (Hamster [2]) of 74% and an AUC(0-t) at 8 h [3] of 14 ng·h/mL. The Activity (Hamster [4]) was 6.02 mg/dL, the Activity (Hamster [5]) was 2340.8 mg/dL and the Activity (Hamster [6]) was 11.52 mg/dL. For the same compound, the Cmax [7] was 5 ng/mL, the Activity (Hamster [8]) was 1512.6 mg/dL and the Activity (Hamster [9]) was 799.7 mg/dL. It also gave an Activity (Hamster [10]) of 11.13 mg/dL, a Tmax [11] of 1 h and an Activity (Hamster [12]) of 3.87 mg/dL. For the same compound, the Activity (Hamster [13]) was 491.9 mg/dL, the Activity (Hamster [14]) was 1291.7 mg/dL and the Activity (Hamster [15]) was 0.94 mg/dL. It also gave an Activity (Hamster [16]) of 0.98 mg/dL, an Activity (Hamster [17]) of 17.67 mg/dL and an Activity (Hamster [18]) of 801.5 mg/dL. It also gave an Activity (Hamster [19]) of 10.07 mg/dL, an AUC(0-t) at 8 h [20] of 358 ng·h/mL and an Activity (Hamster [21]) of 2.4 mg/dL. The Activity (Hamster [22]) was 828.2 mg/dL, the Activity (Canis familiaris) was “Toxic” and the Activity (Hamster [23]) was 3.5 mg/dL. The Activity (Hamster [24]) was 3.43 mg/dL, the Activity (Hamster [25]) was 0.69 mg/dL and the AUC(0-t) at 8 h [26] was 2960 ng·h/mL. The Activity (Hamster [27]) was 5.95 mg/dL and the Activity (Hamster [28]) was 7.65 mg/dL.
